Measured values reported in article PMC9602792, “Preclinical evaluation of the epithelial sodium channel inhibitor AZD5634 and implications on human translation” (American Journal of Physiology - Lung Cellular and …, 2022).

Target: T1, rat ENaC (Rattus norvegicus, UniProt P37089+P37090+P37091)
T1 construct: from tissue; host or cells: kidney distal tubule of anesthetized female Wistar rats, in vivo
T1 sequence (P37089 1-698): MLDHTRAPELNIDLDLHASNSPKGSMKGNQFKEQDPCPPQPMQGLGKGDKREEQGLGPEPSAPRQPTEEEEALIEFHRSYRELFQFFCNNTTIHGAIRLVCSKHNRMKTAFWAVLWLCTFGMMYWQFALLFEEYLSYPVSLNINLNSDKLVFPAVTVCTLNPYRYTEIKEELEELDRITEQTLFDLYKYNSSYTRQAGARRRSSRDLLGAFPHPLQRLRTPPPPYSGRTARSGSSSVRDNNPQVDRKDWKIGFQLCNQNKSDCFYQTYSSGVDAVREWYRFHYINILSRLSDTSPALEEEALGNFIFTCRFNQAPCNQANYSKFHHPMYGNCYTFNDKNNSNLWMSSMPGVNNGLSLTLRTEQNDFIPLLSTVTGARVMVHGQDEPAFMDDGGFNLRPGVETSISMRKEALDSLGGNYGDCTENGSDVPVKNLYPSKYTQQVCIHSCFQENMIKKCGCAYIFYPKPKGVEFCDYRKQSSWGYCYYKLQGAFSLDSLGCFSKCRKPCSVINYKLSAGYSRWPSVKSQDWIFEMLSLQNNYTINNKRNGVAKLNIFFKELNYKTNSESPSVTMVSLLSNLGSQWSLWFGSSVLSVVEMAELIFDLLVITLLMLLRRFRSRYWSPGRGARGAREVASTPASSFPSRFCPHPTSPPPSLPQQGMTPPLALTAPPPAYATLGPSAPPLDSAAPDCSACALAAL
T1 sequence (P37090 1-638): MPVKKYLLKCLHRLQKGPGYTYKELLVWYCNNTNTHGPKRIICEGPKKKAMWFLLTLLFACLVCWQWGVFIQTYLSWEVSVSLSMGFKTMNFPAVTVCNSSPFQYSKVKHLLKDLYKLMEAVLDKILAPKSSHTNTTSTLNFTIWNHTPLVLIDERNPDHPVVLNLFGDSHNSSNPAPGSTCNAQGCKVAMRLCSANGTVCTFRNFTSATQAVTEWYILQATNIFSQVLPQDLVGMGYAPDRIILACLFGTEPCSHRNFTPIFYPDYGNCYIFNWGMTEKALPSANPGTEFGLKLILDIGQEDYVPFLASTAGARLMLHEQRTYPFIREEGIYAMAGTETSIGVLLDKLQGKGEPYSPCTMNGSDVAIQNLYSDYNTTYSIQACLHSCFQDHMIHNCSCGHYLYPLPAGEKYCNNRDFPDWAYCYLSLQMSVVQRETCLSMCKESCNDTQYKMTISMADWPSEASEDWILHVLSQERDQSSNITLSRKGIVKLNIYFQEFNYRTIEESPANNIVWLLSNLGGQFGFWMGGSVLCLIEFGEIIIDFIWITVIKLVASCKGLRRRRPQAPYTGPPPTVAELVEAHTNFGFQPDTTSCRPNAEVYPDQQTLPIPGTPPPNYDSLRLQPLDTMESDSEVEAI
T1 sequence (P37091 1-650): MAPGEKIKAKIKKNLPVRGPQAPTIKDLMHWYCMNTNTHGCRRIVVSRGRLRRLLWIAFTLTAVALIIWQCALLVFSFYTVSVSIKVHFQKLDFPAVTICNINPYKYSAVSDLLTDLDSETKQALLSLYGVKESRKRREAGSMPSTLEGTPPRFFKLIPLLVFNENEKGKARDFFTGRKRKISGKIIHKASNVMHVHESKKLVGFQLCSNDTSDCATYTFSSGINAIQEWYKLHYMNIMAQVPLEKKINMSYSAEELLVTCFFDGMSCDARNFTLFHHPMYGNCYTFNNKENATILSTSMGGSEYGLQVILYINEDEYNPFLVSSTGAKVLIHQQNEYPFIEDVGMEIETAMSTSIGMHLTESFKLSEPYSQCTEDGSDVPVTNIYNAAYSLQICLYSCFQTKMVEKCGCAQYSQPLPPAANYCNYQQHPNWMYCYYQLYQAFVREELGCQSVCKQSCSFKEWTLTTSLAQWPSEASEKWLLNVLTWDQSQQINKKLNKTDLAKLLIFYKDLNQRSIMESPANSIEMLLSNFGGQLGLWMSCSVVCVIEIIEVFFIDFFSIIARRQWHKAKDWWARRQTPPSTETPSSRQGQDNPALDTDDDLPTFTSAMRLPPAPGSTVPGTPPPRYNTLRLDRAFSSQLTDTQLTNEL
Test: Rat potency from renal electrolyte excretion during i.v. infusion
Assay type: in vivo
Details: read-out: potency for rat ENaC (EC50, inhibiting 50% of the potassium excretion), normal rats, free concentrations, estimated
Experimental: The potency of AZD5634 was also assessed in vivo in rats. Female Wistar rats were anesthetized by means of spontaneously breathing isoflurane (induction concentration of 5% followed by 2%). A catheter was positioned in the carotid artery for blood sampling and mean arterial blood pressure and heart rate were measured. […] The urinary bladder was catheterized for urine collection. The rats were left to stabilize for at least 30 min after surgery during constant basal infusions before any test compound or vehicle infusion was initiated. Urine was collected over 20-min periods; two at baseline (i.e., preexposure), followed by three 30 min exposures of increasing doses of test compound or vehicle, where urine was collected over the last 20 min for each dose. Additional urine was collected during the washout period (0–20, 20–40, and 40–60 min after cessation of the infusion protocol). Blood samples were collected 5 min before the end of each urine collection period for electrolyte evaluation (iSTAT analyzer, Abbott Laboratories Inc) and plasma concentration of drug (LC-MSMS). Urine production, electrolytes (ABL700, Radiometer Medical ApS, Brønshøj, Denmark, for urine), as well as concentration of test compound (LC-MSMS) were evaluated.
Rat electrolyte data were analyzed by means of repeated-measures ANCOVA (SAS v.9).

EC50: 8.6 nM
Substance: AZD5634
